Here are results for 2 molecules from US20130102591A1, “COMPOSITIONS AND METHODS FOR PREVENTION AND TREATMENT OF PULMONARY HYPERTENSION” (priority 2010, published 2013).

Structures are written as SMILES. Entries after “also recorded” stand apart in the source; their conditions may differ.

The test system of data set [1] is MCT-induced pulmonary hypertension. The following applies: reported in the literature; cited from earlier work.
Data set [2] can be described thus: Solubility in solvents and aqueous liquids.
The test system of data set [3] is MCT-induced histological alterations in the lung. Put plainly: Lung histology (optical microscopy) in the MCT rat pulmonary hypertension model. Format: in vivo, Sprague-Dawley rats. The following applies: for Fibrosis score: 10 days starting 38 days after MCT; for Effect on histological lung injury (alveolar damage, inflammatory cell infiltrate, vascular smooth muscle hypertrophy), in words: groups 3 and 4 versus vehicle control (group 2). The protocol: (§1) Adult male Sprague-Dawley rats (250-350 g) (3 groups; n=5 per group) were treated with a single subcutaneous injection of monocrotaline (MCT; 60 mg/kg), a plant poison that induces a well-characterized experimental model of pulmonary hypertension, or an equivalent volume of saline (2 ml/kg; control). […] At the conclusion of the 10-day dosing period, rats were anesthetized and instrumented, and resting hemodynamic indices were recorded.
The lower lobe of the right lung was fixed with formalin solution. After paraffin embedding, […] sections were stained with haematoxylin and eosin and observed in a Dialux 22 Leitz (Wetziar, Germany) microscope. The score of lung fibrosis was assessed on sections stained with Masson Trichrome staining. For morphometric evaluations, all three lobes of right lung were inspected. […] Results are expressed as the percentage of vessels presenting indices of disease relative to the total number of vessels counted in the sections.

Data set [4] can be described thus: Tolerability during 10-day dosing in MCT rats (body weight, activity level). Format: in vivo, Sprague-Dawley rats. Here is the method: as §1
In data set [5] the test system is MCT-induced pulmonary hypertension. Put plainly: Mean pulmonary arterial pressure in the monocrotaline (MCT) rat pulmonary hypertension model. In kind it is in vivo, Sprague-Dawley rats. To be noted: 10 days of therapy starting 38 days after MCT. The protocol: as §1
Rats were anesthetized with intramuscular ketamine (90 mg/kg) and pentobarbital sodium (15 mg/kg). The trachea was exposed and cannulated with a plastic tube that was connected to a Harvard ventilator. The animals were ventilated with room air at a tidal volume of 1.5 ml at a rate of 100 breaths/minute. A polyethylene catheter (PE-50) was inserted into the right carotid artery to measure the mean systemic arterial pressure (SAP). A polyvinyl (PV-1) catheter was inserted through the right jugular vein via the right atrium and ventricle into the pulmonary artery for measurement of the mean pulmonary arterial pressure (MPAP).

Setting [6] is: Group 3: MCT + compound 1a, 1.5 mg/kg/day BID, IP.
Setting [7] is: Group 4: MCT + compound 1a, 2 mg/kg/day BID, PO.
[8] abbreviates: listed as 3-nitratomethyl-2,2,5,5-tetramethylpyrrolidinyloxy.

Consider `COc1ccccc1Oc1c(NS(=O)(=O)c2ccc(C(C)(C)C)cc2)nc(-c2ncccn2)nc1OCCO` [bosentan], for which, in data set [1], the “Effect in the same rodent model with comparably delayed initiation of therapy” value is listed as “no effect”.
Take `CC1(C)CC(CO[N+](=O)[O-])C(C)(C)N1[O]` (centres unmarked) [compound 1a, 3-nitratomethyl-2,2,5,5-tetramethylpyrrolidinyloxy]: in data set [2], the “Solubility in ethyl acetate and dimethylsulfoxide (DMSO)” value is “soluble”. Moreover, in data set [2] (water, saline, dextrose solution, polyethylene glycol), the “Solubility in non-toxic aqueous liquids suitable for human administration” value was “insoluble”. In addition, the “Protection by chronic oral (enteral) treatment compared with IP treatment” value in data set [3] (2 mg/kg/day PO versus 1.5 mg/kg/day BID IP) is recorded as “slightly more protective”. For the same molecule, in data set [3] (setting [6]), the Alveolar damage is reported as 0.50 ± 0.35, the Angioedema score is 10.00 ± 8.86 percentage of vessels, the Muscolaris thickening score was 0.00 ± 0.00 percentage of vessels and the Perivascular infiltrate score is reported as 5.95 ± 5.71 percentage of vessels. The Fibrosis score in data set [3] (setting [6]) is reported as 0.80 ± 0.57. Besides, in data set [3] (setting [7]), the Alveolar damage worked out at 0.70 ± 0.45, the Angioedema score is listed as 7.00 ± 2.78 percentage of vessels, the Muscolaris thickening score is 0.00 ± 0.00 percentage of vessels and the Perivascular infiltrate score is 6.06 ± 2.44 percentage of vessels. For the same molecule, the Fibrosis score in data set [3] (setting [7]) is 1.00 ± 0.79. Also, the “Effect on histological lung injury (alveolar damage, inflammatory cell infiltrate, vascular smooth muscle hypertrophy), in words” value in data set [3] is “significantly reduced; also recorded: remarkably reduced”. The “Effect on histological lung injury (alveolar damage, inflammatory cell infiltrate, vascular smooth muscle hypertrophy), in words” value in data set [3] (setting [8]) is “significantly reduced”. Also, in data set [4], the “Effect on body weight or activity level” value is “absence of any effect” and the Tolerability entry was “well tolerated”. For the same molecule, the “Effect on elevation of pulmonary (arterial) hypertension, in words” value in data set [5] is “highly effective; also recorded: significantly reduced”. Further, in data set [5] (setting [8]), the “Effect on elevation of pulmonary (arterial) hypertension, in words” value is on record as “significantly reduced”.
